In ChEMBL document CHEMBL1201862, “PubChem BioAssay data set” (2004):
Where “and” joins values, the source holds several entries; their conditions need not be identical. Equal values may be shown once.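 Tested at 5 concentrations; 48 h exposure; 96-well plates; endpoints linearly interpolated, else capped at highest concentration. GI50 is the concentration that inhibits growth by half.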 Calls of active or inactive are those of the source. No stated cut-off is given here; in the data, active = GI50 up to about 1.1 µM and inactive = higher.

How the values were obtained:
Test in all cases: NCI anticancer screen, dose series, 48 h
[1] = tested on: A549
[2] = tested on: ACHN
[3] = tested on: CCRF-CEM
[4] = tested on: COLO 205
[5] = tested on: DMS-114
[6] = tested on: DMS-273
[7] = tested on: EKVX
[8] = tested on: HCC 2998
[9] = tested on: HCT-116
[10] = tested on: HCT-15
[11] = tested on: HL-60
[12] = tested on: HOP-18
[13] = tested on: HOP-62
[14] = tested on: HOP-92
[15] = tested on: HT-29
[16] = tested on: IGROV-1
[17] = tested on: K562
[18] = tested on: KM-20L2
[19] = tested on: KM12
[20] = tested on: LOX IMVI
[21] = tested on: LXFL 529
[22] = tested on: M14
[23] = tested on: M19-MEL
[24] = tested on: MOLT-4
[25] = tested on: NCI-H23
[26] = tested on: NCI-H460
[27] = tested on: OVCAR-3
[28] = tested on: OVCAR-4
[29] = tested on: OVCAR-5
[30] = tested on: OVCAR-8
[31] = tested on: RPMI-8226
[32] = tested on: RXF 393
[33] = tested on: SF-268
[34] = tested on: SF-539
[35] = tested on: SK-MEL-28
[36] = tested on: SK-MEL-2
[37] = tested on: SK-MEL-5
[38] = tested on: SN12C
[39] = tested on: SNB-19
[40] = tested on: SNB-75
[41] = tested on: SNB-78
[42] = tested on: SR
[43] = tested on: SW-620
[44] = tested on: TK-10
[45] = tested on: U-251
[46] = tested on: UACC-257
[47] = tested on: UACC-62
[48] = tested on: UO-31
[49] = tested on: NCI-H522
[50] = tested on: SK-OV-3
[51] = tested on: 786-0
[52] = tested on: CAKI-1
[53] = tested on: Malme-3M
[54] = tested on: NCI-H226
[55] = tested on: SF-295

For `c1ccc(Nc2nnc(-c3nsc4ccccc34)o2)cc1`, the GI50 [1] was > 100 µM (inactive), the GI50 [2] was 75.3 µM (inactive) and the GI50 [3] was 71.1 µM (inactive). For the same compound, the GI50 [4] was > 100 µM (inactive), the GI50 [5] was > 100 µM (inactive) and the GI50 [6] was 46.6 µM (inactive). The GI50 [7] was 51.3 µM (inactive), the GI50 [8] was > 100 µM (inactive) and the GI50 [9] was 74.1 µM (inactive). The GI50 [10] was > 100 µM, the GI50 [11] was > 100 µM (inactive) and the GI50 [12] was > 100 µM (inactive). For the same compound, the GI50 [13] was 32.9 µM (inactive), the GI50 [14] was 19.2 µM (inactive) and the GI50 [15] was > 100 µM (inactive). For the same compound, the GI50 [16] was > 100 µM (inactive), the GI50 [17] was 59.6 µM (inactive) and the GI50 [18] was > 100 µM (inactive). The GI50 [19] was > 100 µM (inactive), the GI50 [20] was > 100 µM (inactive) and the GI50 [21] was 85.5 µM (inactive). The GI50 [22] was > 100 µM (inactive), the GI50 [23] was > 100 µM (inactive) and the GI50 [24] was > 100 µM (inactive). For the same compound, the GI50 [25] was 91.4 µM (inactive), the GI50 [26] was 62.1 µM (inactive) and the GI50 [27] was 14 µM (inactive). For the same compound, the GI50 [28] was 41 µM (inactive), the GI50 [29] was > 100 µM (inactive) and the GI50 [30] was 48.4 µM (inactive). The GI50 [31] was > 100 µM (inactive), the GI50 [32] was 51.5 µM (inactive) and the GI50 [33] was > 100 µM (inactive). The GI50 [34] was > 100 µM (inactive), the GI50 [35] was > 100 µM (inactive) and the GI50 [36] was > 100 µM (inactive). For the same compound, the GI50 [37] was > 100 µM (inactive), the GI50 [38] was 71.1 µM (inactive) and the GI50 [39] was 37.8 µM (inactive). For the same compound, the GI50 [40] was 34.9 µM (inactive), the GI50 [41] was 89.5 µM (inactive) and the GI50 [42] was > 100 µM (inactive). For the same compound, the GI50 [43] was > 100 µM (inactive), the GI50 [44] was > 100 µM (inactive) and the GI50 [45] was 31.4 µM (inactive). The GI50 [46] was > 100 µM (inactive), the GI50 [47] was > 100 µM (inactive) and the GI50 [48] was > 100 µM (inactive).
In the case of `CCCSc1nc(-c2ccc(OC)cc2)c(C#N)c(=O)n1C1OC(COC(C)=O)C(OC(C)=O)C(OC(C)=O)C1OC(C)=O` (stereo unspecified), the GI50 [2] is reported as > 100 µM (inactive), the GI50 [3] is reported as > 100 µM (inactive) and the GI50 [4] is reported as > 100 µM (inactive). The GI50 [5] was > 100 µM (inactive), the GI50 [11] was > 100 µM (inactive) and the GI50 [15] was > 100 µM (inactive) and 65.9 µM (inactive). The GI50 [17] was > 100 µM (inactive), the GI50 [18] was > 100 µM (inactive) and 54.6 µM (inactive) and the GI50 [19] was > 100 µM (inactive). The GI50 [21] was > 100 µM (inactive), the GI50 [23] was > 100 µM (inactive) and the GI50 [24] was > 100 µM (inactive). The GI50 [25] was > 100 µM (inactive), the GI50 [26] was > 100 µM (inactive) and the GI50 [49] was > 100 µM (inactive). The GI50 [28] was > 100 µM (inactive), the GI50 [31] was > 100 µM (inactive) and the GI50 [33] was > 100 µM (inactive). For the same compound, the GI50 [34] was > 100 µM (inactive), the GI50 [35] was > 100 µM (inactive) and the GI50 [36] was > 100 µM (inactive). For the same compound, the GI50 [50] was > 100 µM (inactive), the GI50 [40] was 42.3 µM (inactive) and the GI50 [41] was 99.3 µM (inactive). The GI50 [42] was > 100 µM (inactive) and the GI50 [47] was > 100 µM (inactive).
In the case of `CCOC(=O)c1ccc(N2C(=O)/C(=C\OC)c3ccccc3C2=O)cc1`, the GI50 [51] is reported as 27.2 µM (inactive), the GI50 [1] is reported as 43.3 µM (inactive) and the GI50 [2] is reported as 42.4 µM (inactive). The GI50 [52] was 33.4 µM (inactive), the GI50 [4] was 94.4 µM (inactive) and the GI50 [5] was 31.5 µM (inactive). For the same compound, the GI50 [6] was 33.1 µM (inactive), the GI50 [7] was > 100 µM (inactive) and the GI50 [8] was 46.2 µM (inactive). For the same compound, the GI50 [9] was 34.6 µM (inactive), the GI50 [10] was 36 µM and the GI50 [15] was 44.3 µM (inactive). For the same compound, the GI50 [16] was 25.2 µM (inactive), the GI50 [17] was 34.2 µM (inactive) and the GI50 [18] was 37 µM (inactive). For the same compound, the GI50 [19] was 42.6 µM (inactive), the GI50 [21] was 23.6 µM (inactive) and the GI50 [23] was 75.2 µM (inactive). For the same compound, the GI50 [24] was 25.5 µM (inactive), the GI50 [53] was 18.7 µM (inactive) and the GI50 [54] was 54 µM (inactive). The GI50 [25] was 37.2 µM (inactive), the GI50 [49] was 29 µM (inactive) and the GI50 [27] was 36.6 µM (inactive). The GI50 [28] was 43.6 µM (inactive), the GI50 [29] was 43.1 µM (inactive) and the GI50 [30] was 20 µM (inactive). The GI50 [31] was 27.8 µM (inactive), the GI50 [32] was 11.2 µM (inactive) and the GI50 [33] was 27.7 µM (inactive). The GI50 [55] was 33.4 µM (inactive), the GI50 [34] was 32.4 µM (inactive) and the GI50 [35] was 24.7 µM (inactive). The GI50 [36] was 23 µM (inactive), the GI50 [37] was 70.8 µM (inactive) and the GI50 [50] was 5.22 µM (inactive). The GI50 [38] was 24.5 µM (inactive), the GI50 [39] was 34 µM (inactive) and the GI50 [40] was 25.5 µM (inactive). For the same compound, the GI50 [41] was 43.7 µM (inactive), the GI50 [42] was 30.3 µM (inactive) and the GI50 [43] was 33.8 µM (inactive). For the same compound, the GI50 [44] was 15.1 µM (inactive), the GI50 [45] was 22.7 µM (inactive) and the GI50 [46] was 38.5 µM (inactive). The GI50 [47] was 23.2 µM (inactive) and the GI50 [48] was 15.5 µM (inactive).
